In brackets after ≈: the same amount, converted by molar mass. Where two headings read alike, the source gives them in different places.
How the values were obtained:
Test in all cases: In-vitro antimicrobial activity primary screen (agar dilution MIC)
Type in all cases: cell-based
[1] = tested on: Staphylococcus aureus CMX 686B; settings: CMX686B, BHI agar, 20-24 h, read-out: MIC
Experimental: (§1) The antimicrobial spectra of several of the compounds of the present invention were tested as described below.
(§2) Twelve petri dishes containing successive aqueous dilutions of the test compounds, mixed with 10 mL of sterilized Brain Heart Infusion (BHI) agar (Difco 0418-01-5), were prepared. Each plate was inoculated with 1:100 (or 1:10 for slow growing strains (primarily Micrococcus and Streptococcus) dilutions of up to 32 different microorganisms, using a Steers replicator block. The inoculated plates were incubated at 35 37° C. for 20-24 hours. In addition, a control plate, using BHI agar containing no test compound, was prepared and incubated at the beginning and the end of each test.
(§3) An additional plate containing a compound having known susceptibility patterns for the organisms being tested and belonging to the same antibiotic class as the test compounds was also prepared and incubated as a further control, as well as to provide test-to test comparability. Erythromycin A was used for this purpose.
(§4) After incubation, each plate was read. The MIC (minimum inhibitory concentration) is defined as the lowest concentration of test compound yielding no growth, a slight haze, or sparsely isolated colonies on the inoculum spot as compared to the growth control containing no test compound.

[2] = tested on: Staphylococcus aureus CMX 503A; settings: Staphylococcus aureus, CMX503A, 24 h, BHI agar, 20-24 h, read-out: MIC
Experimental: as §1, §2, §3, §4

[3] = tested on: Staphylococcus aureus CMX 553; settings: Staphylococcus aureus, CMX553, 24 h, BHI agar, 20-24 h, read-out: MIC
Experimental: as §1, §2, §3, §4

[4] = tested on: Enterococcus faecium ATCC 8043
Experimental: as §1, §2
(§5) An additional plate containing a compound having known susceptibility patterns for the organisms being tested and belonging to the same antibiotic class as the test compounds was also prepared and incubated as a further control, as well as to provide test-to test comparability.
as §4

[5] = tested on: Escherichia coli DC-2
Experimental: as §1, §2, §5, §4

[6] = tested on: Staphylococcus aureus ATCC 6538P; settings: Staphylococcus aureus, ATCC6538P, 24 h, BHI agar, 20-24 h
Experimental: as §1, §2, §5, §4

[7] = tested on: Streptococcus bovis A5169; settings: Streptococcus equinus, BHI agar, 20-24 h, read-out: MIC
Experimental: as §1, §2, §5, §4

[8] = tested on: Acinetobacter SP CMX 669
Experimental: as §1, §2, §5, §4

[9] = tested on: Micrococcus luteus ATCC 9341; settings: Micrococcus luteus, ATCC9341, 24 h, BHI agar, 20-24 h
Experimental: as §1, §2, §5, §4

[10] = tested on: Pseudomonas aeruginosa K799/61; settings: Pseudomonas aeruginosa, K799/61, 24 h
Experimental: as §1, §2, §5, §4

[11] = tested on: Klebsiella pneumoniae ATCC 8045
Experimental: as §1, §2, §5, §4

[12] = tested on: Providencia stuartii CMX 640
Experimental: as §1, §2, §5, §4

[13] = tested on: Staphylococcus aureus 45 RAR2; settings: Staphylococcus aureus, 45RAR2, 24 h, BHI agar, 20-24 h
Experimental: as §1, §2, §5, §4

[14] = tested on: Pseudomonas aeruginosa A5007
Experimental: as §1, §2, §5, §4

[15] = tested on: Streptococcus pyrogenes 2548 INDUC; settings: BHI agar, 20-24 h
Experimental: as §1, §2, §5, §4

[16] = tested on: Escherichia coli SS; settings: BHI agar, 20-24 h
Experimental: as §1, §2, §5, §4

[17] = tested on: Micrococcus luteus ATCC 4698; settings: 20-24 h
Experimental: as §1, §2, §5, §4

[18] = tested on: Streptococcus pyrogenes EES61; settings: BHI agar, 20-24 h, read-out: MIC
Experimental: as §1, §2, §5, §4

[19] = tested on: Staphylococcus epidermidis 3519; settings: Staphylococcus epidermidis, 3519, 24 h, BHI agar, 20-24 h
Experimental: as §1, §2, §5, §4

[20] = tested on: Enterobacter aerogenes ATCC 13048; settings: Klebsiella aerogenes
Experimental: as §1, §2, §5, §4

[21] = tested on: Staphylococcus aureus 45; settings: BHI agar, 20-24 h
Experimental: as §1, §2, §5, §4

[22] = tested on: Escherichia coli H560; settings: Escherichia coli H560, BHI agar, 20-24 h
Experimental: as §1, §2, §5, §4

[23] = tested on: Pseudomonas aeruginosa K799/WT
Experimental: as §1, §2, §5, §4

[24] = tested on: Streptococcus agalactiae CMX 508; settings: 20-24 h
Experimental: as §1, §2, §5, §4

[25] = tested on: Escherichia coli JUHL
Experimental: as §1, §2, §5, §4

[26] = tested on: Staphylococcus aureus A5177; settings: Staphylococcus aureus, A5177, 24 h, Staphylococcus aureus A5177; BHI agar, 20-24 h
Experimental: as §1, §2, §5, §4

[27] = tested on: Pseudomonas cepacia 2961; settings: BHI agar, 20-24 h
Experimental: as §1, §2, §5, §4

[28] = tested on: Pseudomonas aeruginosa BMH10; settings: BHI agar, 20-24 h
Experimental: as §1, §2, §5, §4

CC[C@H]1OC(=O)[C@H](C)[C@@H](O[C@H]2C[C@@](C)(OC)[C@H](N=CN(C)C)[C@H](C)O2)[C@H](C)[C@@H](O[C@@H]2O[C@H](C)C[C@H](N(C)C)[C@H]2O)[C@](C)(O)C[C@@H](C)[C@@H]2O[C@@]1(C)C(=O)[C@H]2C [Example 9, (4"R,9S)-9-Deoxo-4",11,12-trideoxy-9,12-epoxy-4"-[[(dimethyamino)methylene]amino]-11-oxoerythromycin A]
MIC [1]: 0.39 µg/mL (≈ 0.506 µM)
MIC [2]: 0.39 µg/mL (≈ 0.506 µM)
MIC [3]: 0.39 µg/mL (≈ 0.506 µM)
MIC ([4]; Enterococcus faecium, ATCC8043, 24 h): 0.1 µg/mL (≈ 0.13 µM)
MIC ([5]; Escherichia coli, DC2, 24 h): > 100 µg/mL
MIC [6]: 0.39 µg/mL (≈ 0.506 µM)
MIC [7]: < 0.005 µg/mL
MIC ([8]; Acinetobacter, SPCMX669, 24 h): 50 µg/mL (≈ 64.9 µM)
MIC [9]: 0.02 µg/mL (≈ 0.026 µM)
MIC ([10]; Pseudomonas aeruginosa K799/61, BHI agar, 20-24 h): 3.1 µg/mL (≈ 4.03 µM)
MIC ([11]; Klebsiella pneumoniae, ATCC8045, 24 h): > 100 µg/mL
MIC ([12]; Providencia stuartii, CMX640, 24 h): > 100 µg/mL
MIC [13]: 0.78 µg/mL (≈ 1.01 µM)
MIC ([14]; Pseudomonas aeruginosa, A5007, 24 h): > 100 µg/mL
MIC ([15]; read-out: MIC): 6.2 µg/mL (≈ 8.05 µM)
MIC ([16]; read-out: MIC): 0.78 µg/mL (≈ 1.01 µM)
MIC ([17]; Micrococcus luteus, ATCC4698, 24 h, BHI agar): 0.2 µg/mL (≈ 0.26 µM)
MIC [18]: < 0.005 µg/mL
MIC [19]: 0.39 µg/mL (≈ 0.506 µM)
MIC ([20]; ATCC13048, 24 h): > 100 µg/mL
MIC ([21]; read-out: MIC): 0.39 µg/mL (≈ 0.506 µM)
MIC ([22]; Escherichia coli, H560, 24 h): 50 µg/mL (≈ 64.9 µM)
MIC ([23]; Pseudomonas aeruginosa, K799/WT, 24 h): 100 µg/mL (≈ 130 µM)
MIC ([24]; Streptococcus agalactiae, CMX508, 24 h, BHI agar): 0.01 µg/mL (≈ 0.013 µM)
MIC ([25]; Escherichia coli, 24 h): > 100 µg/mL
MIC [26]: 0.78 µg/mL (≈ 1.01 µM)
MIC ([27]; Burkholderia cepacia, 2961, 24 h): > 100 µg/mL
MIC ([28]; Pseudomonas aeruginosa, BMH10, 24 h): > 100 µg/mL

CC[C@H]1OC(=O)[C@H](C)[C@@H](O[C@H]2C[C@@](C)(OC)[C@@H](NS(C)(=O)=O)[C@H](C)O2)[C@H](C)[C@@H](O[C@@H]2O[C@H](C)C[C@H](N(C)C)[C@H]2O)[C@](C)(O)C[C@@H](C)[C@@H]2O[C@@]1(C)C(=O)[C@H]2C [Example 16, (4"S,9S)-9-Deoxo-4",11,12-trideoxy-9,12-epoxy-4"-(methylsulfonyl)amino-11-oxerythromycin A]
MIC [1]: 0.39 µg/mL (≈ 0.492 µM)
MIC [2]: 0.39 µg/mL (≈ 0.492 µM)
MIC [3]: 0.39 µg/mL (≈ 0.492 µM)
MIC ([4]; ATCC8043, Enterococcus faecium ATCC 8043, BHI agar, 20-24 h, read-out: MIC): 0.05 µg/mL (≈ 0.063 µM)
MIC ([5]; DC2, Escherichia coli DC-2, BHI agar, 20-24 h, read-out: MIC): > 100 µg/mL
MIC [6]: 0.39 µg/mL (≈ 0.492 µM)
MIC [7]: < 0.005 µg/mL
MIC ([8]; SPCMX669, Acinetobacter SP CMX 669, BHI agar, 20-24 h, read-out: MIC): 50 µg/mL (≈ 63 µM)
MIC [9]: 0.02 µg/mL (≈ 0.0252 µM)
MIC [10]: 3.1 µg/mL (≈ 3.91 µM)
MIC ([11]; ATCC8045, Klebsiella pneumoniae ATCC 8045, BHI agar, 20-24 h, read-out: MIC): > 100 µg/mL
MIC ([12]; CMX640, Providencia stuartii CMX 640, BHI agar, 20-24 h, read-out: MIC): > 100 µg/mL
MIC [13]: 0.78 µg/mL (≈ 0.984 µM)
MIC ([14]; Pseudomonas aeruginosa A5007, BHI agar, 20-24 h, read-out: MIC): > 100 µg/mL
MIC ([15]; Streptococcus, 2548INDUC, 24 h): 3.1 µg/mL (≈ 3.91 µM)
MIC ([16]; Escherichia coli, 24 h): 0.39 µg/mL (≈ 0.492 µM)
MIC ([17]; ATCC4698, BHI agar, read-out: MIC): 0.05 µg/mL (≈ 0.063 µM)
MIC [18]: < 0.005 µg/mL
MIC [19]: 0.39 µg/mL (≈ 0.492 µM)
MIC ([20]; ATCC13048, Enterobacter aerogenes ATCC 13048, BHI agar, 20-24 h, read-out: MIC): > 100 µg/mL
MIC ([21]; Staphylococcus aureus, 45, 24 h): 0.39 µg/mL (≈ 0.492 µM)
MIC ([22]; read-out: MIC): > 100 µg/mL
MIC ([23]; Pseudomonas aeruginosa K799/WT, BHI agar, 20-24 h, read-out: MIC): 100 µg/mL (≈ 126 µM)
MIC ([24]; CMX508, BHI agar, read-out: MIC): 0.02 µg/mL (≈ 0.0252 µM)
MIC ([25]; Escherichia coli JUHL, BHI agar, 20-24 h, read-out: MIC): > 100 µg/mL
MIC [26]: 0.39 µg/mL (≈ 0.492 µM)
MIC ([27]; Burkholderia cepacia, read-out: MIC): > 100 µg/mL
MIC ([28]; read-out: MIC): 100 µg/mL (≈ 126 µM)
